# Earlier results in patent US9573873B2, “Catalytic method for dibenzocycloheptane synthesis and allocolchicinoid synthesis” (UNIVERSITY OF WINDSOR, priority 2014, dated 2017).
# Details: Phase 2 clinical testing; background statement
compound,measurement,value
"COc1cc2c(c(OC)c1OC)-c1ccc(OP(=O)(O)O)cc1[C@@H](NC(C)=O)CC2 [ZD 6126, N-Acetylcolchicinol dihydrogen phosphate]",cardiotoxicity,failed in Phase 2 clinical testing because of this cardiotoxicity
